Data on 25 compounds can be found in US20250257041A1, “INDUCERS OF INTEGRATED STRESS RESPONSE TO TREAT CANCER” (The Board of Regents of The University of Texas System, priority 2022, published 2025).

The subject of one assay is HCT116 WT. As to the kind of experiment: Proliferation of HCT116 colorectal cell line, Cell TiterGlo. Type of assay: cell-based, human. Summed up: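 HCT116 colorectal cells, wild type, GCN2 CRISPR knockout, or wild type plus ISRIB; proliferation read by CellTiter-Glo luminescence. 10-point dose response in triplicate, IC50 reported; multiple values are independent experiments.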

The subject of the next assay is HCT116 GCN2KO. As to the kind of experiment: Proliferation of HCT116 cells with GCN2 knocked out (CRISPR), Cell TiterGlo. Type of assay: cell-based, human. As to conditions: Homo sapiens, HCT-116; HCT116 cells with GCN2 knocked out using CRISPR; read-out: HCT116 IC50 (uM) HCT116 − GCN2KO. The procedure: Briefly, compounds were tested for their effect on proliferation of HCT116 colorectal cell lines using Cell TiterGlo (Promega). Each compound was tested in a 10-point dose response experiment in triplicate. Multiple values in the column titled HCT116 WT reflect separate independent experiments. The three columns titled “HCT116 WT (repeat)”, “HCT116-CGN2KO” and “HCT116 WT+ISRIB” provide data for selected compounds that were tested simultaneously under three conditions. The HCT116 WT column lists IC50 against the wild type HCT116 colorectal cancer cell line. The HCT116-CGN2KO lists IC50 data for cells in which one component of the integrated stress response, GCN2, has been knocked out using CRISPR technology.

Setting [1] is: Homo sapiens, HCT-116, wild type HCT116, 10-point dose response in triplicate, multiple values = separate independent experiments, read-out: HCT116 IC50 (uM) HCT116 WT.
The mark [2] stands for this setting: Homo sapiens, HCT-116, wild type HCT116, tested simultaneously with GCN2KO and +ISRIB, read-out: HCT116 IC50 (uM) HCT116 WT (repeat).
[3] abbreviates: wild type HCT116, compound plus 10 nM of ISRIB, read-out: HCT116 IC50 (uM) HCT116 WT + ISRIB.

The structures appear in SMILES notation. Where two headings read alike, the source gives them in different places.

`COC(=O)c1cccc(C(=O)Nc2cc(-c3ccc(NC(=O)c4ccccc4)cc3)nn2C)c1` [SW389153, Methyl 3-((3-(4-benzamidophenyl)-1-methyl-1H-pyrazol-5-yl)carbamoyl)benzoate]: the IC50 was 0.208 µM in the assay with HCT116 WT (setting [1]), 0.2 µM in the assay on HCT116 WT (setting [2]), 1.73 µM in the assay on HCT116 WT (setting [3]) and 1.31 µM with HCT116 GCN2KO.

Turning to `Cn1nc(-c2ccc(NC(=O)c3ccccc3)cc2)cc1NC(=O)c1cccc(C(=O)c2ccccc2)c1` [SW389154, N-(3-(4-Benzamidophenyl)-1-methyl-1H-pyrazol-5-yl)-3-benzoylbenzamide], the IC50 with HCT116 WT (setting [1]) was 0.195 µM; with HCT116 WT (setting [2]), 0.18 µM; in the assay with HCT116 WT (setting [3]) it was 0.77 µM; in the assay with HCT116 GCN2KO, 0.53 µM.

For `Cn1nc(-c2ccc(NC(=O)c3ccccc3)cc2)cc1NC(=O)c1cccc(C(F)(F)F)c1` [SW389155, N-(3-(4-Benzamidophenyl)-1-methyl-1H-pyrazol-5-yl)-3-(trifluoromethyl)benzamide], the IC50 was found to be 0.416 µM in the assay with HCT116 WT (setting [1]), 0.46 µM with HCT116 WT (setting [2]), 2.97 µM in the assay with HCT116 WT (setting [3]) and 2.2 µM with HCT116 GCN2KO.

With `Cc1cccc(C(=O)Nc2cc(-c3ccc(NC(=O)c4ccccc4)cc3)nn2C)c1` [SW389156, N-(3-(4-Benzamidophenyl)-1-methyl-1H-pyrazol-5-yl)-3-methylbenzamide], the IC50 with HCT116 WT (setting [1]) was found to be 0.298 µM; in the assay on HCT116 WT (setting [2]), 0.28 µM; in the assay on HCT116 WT (setting [3]), 2.45 µM; with HCT116 GCN2KO, 2.22 µM.

In the case of `Cn1nc(-c2ccc(NC(=O)c3ccccc3)cc2)cc1NC(=O)c1cccc(N=[N+]=[N-])c1` [SW389157, 3-Azido-N-(3-(4-benzamidophenyl)-1-methyl-1H-pyrazol-5-yl)benzamide], the IC50 was determined as 0.405 µM in the assay on HCT116 WT (setting [1]), 0.21 µM in the assay on HCT116 WT (setting [2]), 2.5 µM in the assay on HCT116 WT (setting [3]) and 2.77 µM with HCT116 GCN2KO.

`Cn1nc(-c2ccc(NC(=O)c3ccccc3)cc2)cc1NC(=O)c1cccc(C#N)c1` [SW389158, N-(3-(4-Benzamidophenyl)-1-methyl-1H-pyrazol-5-yl)-3-cyanobenzamide]: the IC50 in the assay with HCT116 WT (setting [1]) is 0.561 µM; in the assay on HCT116 WT (setting [2]), 0.39 µM; in the assay with HCT116 WT (setting [3]) it was 3.01 µM; in the assay on HCT116 GCN2KO, 2.96 µM.

For the compound `Cn1nc(-c2ccc(NC(=O)c3ccccc3)cc2)cc1NC(=O)c1cccc(F)c1` [SW389159, N-(3-(4-Benzamidophenyl)-1-methyl-1H-pyrazol-5-yl)-3-fluorobenzamide], the IC50 in the assay on HCT116 WT (setting [1]) came out at 0.788 µM; in the assay with HCT116 WT (setting [2]), 0.38 µM; in the assay on HCT116 WT (setting [3]), 2.59 µM; with HCT116 GCN2KO it was 2.54 µM.

Take `Cn1nc(-c2ccc(NC(=O)c3ccccc3)cc2)cc1NC(=O)c1cccc(Cl)c1` [SW389161, N-(3-(4-benzamidophenyl)-1-methyl-1H-pyrazol-5-yl)-3-chlorobenzamide]: the IC50 in the assay on HCT116 WT (setting [1]) came to 1.27 µM; with HCT116 WT (setting [2]) it was 1.06 µM; in the assay with HCT116 WT (setting [3]), 8.26 µM; in the assay with HCT116 GCN2KO, 11.7 µM.

As to `Cn1nc(-c2ccc(NC(=O)c3ccccc3)cc2)cc1NC(=O)c1cccc(Br)c1` [SW389162, N-(3-(4-benzamidophenyl)-1-methyl-1H-pyrazol-5-yl)-3-bromobenzamide], the IC50 with HCT116 WT (setting [1]) was found to be 0.335 µM; in the assay with HCT116 WT (setting [2]), 0.32 µM; with HCT116 WT (setting [3]) it was 2.6 µM; in the assay on HCT116 GCN2KO, 3.14 µM.

Turning to `Cn1nc(-c2ccc(NC(=O)c3ccc(C#N)cc3)cc2)cc1NC(=O)c1ccccc1` [SW393061, N-(4-(5-benzamido-1-methyl-1H-pyrazol-3-yl)phenyl)-4-cyanobenzamide], the 50% inhibitory concentration (IC50) in the assay on HCT116 WT (setting [2]) and in the assay on HCT116 GCN2KO was at least 50 µM each time. Moreover, the “HCT116 IC50 (uM) HCT116 WT” value with HCT116 WT (wild type HCT116, 10-point dose response in triplicate, multiple values = separate independent experiments) was “inactive”.

On to `Cn1nc(-c2ccc(NC(=O)c3cccc(Cl)c3)cc2)cc1NC(=O)c1ccccc1` [SW393062, N-(4-(5-benzamido-1-methyl-1H-pyrazol-3-yl)phenyl)-3-chlorobenzamide], for which the IC50 with HCT116 WT (setting [1]) was determined as 2.1 µM; in the assay with HCT116 WT (setting [2]), 2.37 µM; in the assay on HCT116 WT (setting [3]), 8.72 µM; in the assay with HCT116 GCN2KO it was 10.5 µM.

Regarding `Cn1nc(-c2ccc(NC(=O)c3ccncc3)cc2)cc1NC(=O)c1ccccc1` [SW393063, N-(4-(5-benzamido-1-methyl-1H-pyrazol-3-yl)phenyl)isonicotinamide], the IC50 is 3.2 µM with HCT116 WT (setting [1]), 2.04 µM in the assay with HCT116 WT (setting [2]), 3.1 µM in the assay on HCT116 WT (setting [3]) and 3.69 µM in the assay with HCT116 GCN2KO.

Take `C#CCOc1cccc(C(=O)Nc2ccc(-c3cc(NC(=O)c4ccc(N=[N+]=[N-])cc4)n(C)n3)cc2)c1` [SW393065, N-(4-(5-(4-Azidobenzamido)-1-methyl-1H-pyrazol-3-yl)phenyl)-3-(prop-2-yn-1-yloxy)benza-mide]: the IC50 in the assay with HCT116 WT (setting [1]) was determined as 3 µM; in the assay on HCT116 WT (setting [2]) it was 3.73 µM; in the assay on HCT116 WT (setting [3]) it was 3.26 µM; in the assay with HCT116 GCN2KO, 3.23 µM.

Regarding `COC(=O)c1cccc(C(=O)Nc2ccc(-c3cc(NC(=O)c4ccccc4)n(C)n3)cc2)c1` [SW393068, methyl 3-((4-(5-benzamido-1-methyl-1H-pyrazol-3-yl)phenyl)carbamoyl)benzoate], the IC50 in the assay with HCT116 WT (setting [1]) is 8.3 µM; in the assay on HCT116 WT (setting [2]), 13.6 µM; in the assay with HCT116 GCN2KO, 47 µM.

For the compound `Cn1nc(-c2ccc(NC(=O)c3cccc(C#N)c3)cc2)cc1NC(=O)c1ccccc1` [SW393069, N-(4-(5-benzamido-1-methyl-1H-pyrazol-3-yl)phenyl)-3-cyanobenzamide], the IC50 in the assay with HCT116 WT (setting [1]) amounted to 17 µM; in the assay with HCT116 WT (setting [2]), 7.43 µM; in the assay with HCT116 WT (setting [3]) it was 12.7 µM; with HCT116 GCN2KO, 15.2 µM.

For the compound `Cn1nc(-c2ccc(NS(=O)(=O)c3ccccc3)cc2)cc1NC(=O)c1ccccc1` [SW393070, N-(1-methyl-3-(4-(phenylsulfonamido)phenyl)-1H-pyrazol-5-yl)benzamide], the IC50 in the assay with HCT116 WT (setting [1]) was determined as 16 µM; in the assay on HCT116 WT (setting [2]) it was 9.06 µM; in the assay with HCT116 WT (setting [3]), 23.3 µM; in the assay on HCT116 GCN2KO it was 22 µM.

`Cn1nc(-c2ccc(NC(=O)c3ccc(Cl)cc3)cc2)cc1NC(=O)c1ccccc1` [SW393072, N-(4-(5-benzamido-1-methyl-1H-pyrazol-3-yl)phenyl)-4-chlorobenzamide]: the IC50 was 3.3 µM in the assay with HCT116 WT (setting [1]), 2.83 µM in the assay with HCT116 WT (setting [2]), 13.8 µM in the assay on HCT116 WT (setting [3]) and 11.1 µM in the assay on HCT116 GCN2KO.

Consider `COC(=O)c1ccc(C(=O)Nc2ccc(-c3cc(NC(=O)c4ccccc4)n(C)n3)cc2)cc1` [SW393073, methyl 4-((4-(5-benzamido-1-methyl-1H-pyrazol-3-yl)phenyl)carbamoyl)benzoate], for which the half-maximal inhibitory concentration (IC50) with HCT116 WT (setting [1]) is 14 µM; in the assay with HCT116 WT (setting [2]), 8 µM; in the assay with HCT116 GCN2KO, at least 50 µM.

Consider `Cn1nc(-c2ccc(NC(=O)c3ccccc3C(F)(F)F)cc2)cc1NC(=O)c1ccccc1` [SW393124, N-(4-(5-benzamido-1-methyl-1H-pyrazol-3-yl)phenyl)-2-(trifluoromethyl)benzamide], for which the IC50 in the assay on HCT116 WT (setting [1]) is 0.008 µM; in the assay on HCT116 WT (setting [2]) it was 0.02 µM; in the assay on HCT116 WT (setting [3]) it was 0.09 µM; in the assay on HCT116 GCN2KO it was 0.08 µM.

`C#CCOc1cccc(C(=O)Nc2cc(-c3ccc(NC(=O)c4ccccc4Cl)cc3)nn2C)c1` [SW393125, 2-Chloro-N-(4-(1-methyl-5-(3-(prop-2-yn-1-yloxy)benzamido)-1H-pyrazol-3-yl)phenyl)benz-amide]: the half-maximal inhibitory concentration (IC50) in the assay on HCT116 WT (setting [1]) was 0.012 µM; in the assay on HCT116 WT (setting [2]), 0.03 µM; in the assay on HCT116 WT (setting [3]) it was 0.07 µM; with HCT116 GCN2KO, 0.07 µM.

For the compound `Cn1nc(-c2ccc(NC(=O)c3ccccn3)cc2)cc1NC(=O)c1ccccc1` [SW393126, N-(4-(5-benzamido-1-methyl-1H-pyrazol-3-yl)phenyl)picolinamide], the IC50 is 3.32 µM in the assay on HCT116 WT (setting [1]), 7.17 µM in the assay on HCT116 WT (setting [2]), 25.8 µM with HCT116 WT (setting [3]) and 32.9 µM in the assay on HCT116 GCN2KO.

Regarding `Cn1nc(-c2ccc(NC(=O)c3cccnc3)cc2)cc1NC(=O)c1ccccc1` [SW393127, N-(4-(5-benzamido-1-methyl-1H-pyrazol-3-yl)phenyl)nicotinamide], the IC50 was 0.5 µM in the assay with HCT116 WT (setting [1]), 1.46 µM in the assay on HCT116 WT (setting [2]), 7.5 µM with HCT116 WT (setting [3]) and 6.64 µM in the assay on HCT116 GCN2KO.

Regarding `Cn1nc(-c2ccc(NC(=O)c3ccccc3)cc2)cc1NC(=O)c1cccnc1` [SW393128, N-(3-(4-benzamidophenyl)-1-methyl-1H-pyrazol-5-yl)nicotinamide], the IC50 stood at 0.2 µM with HCT116 WT (setting [1]), 0.48 µM in the assay on HCT116 WT (setting [2]), 3.73 µM with HCT116 WT (setting [3]) and 4.05 µM in the assay on HCT116 GCN2KO.

Take `Cn1nc(-c2ccc(NC(=O)c3ccccc3)cc2)cc1NC(=O)c1ccncc1` [SW393129, N-(3-(4-benzamidophenyl)-1-methyl-1H-pyrazol-5-yl)isonicotinamide]: the IC50 with HCT116 WT (setting [1]) was 0.95 µM; in the assay on HCT116 WT (setting [2]), 2.11 µM; in the assay on HCT116 WT (setting [3]) it was 4.03 µM; with HCT116 GCN2KO, 4.72 µM.

Turning to `COC(=O)c1ccc(C(=O)Nc2cc(-c3ccc(NC(=O)c4ccccc4)cc3)nn2C)cc1` [SW393130, methyl 4-((3-(4-benzamidophenyl)-1-methyl-1H-pyrazol-5-yl)carbamoyl)benzoate], the IC50 was 0.92 µM in the assay with HCT116 WT (setting [1]), 1.87 µM in the assay on HCT116 WT (setting [2]) and at least 50 µM in the assay with HCT116 GCN2KO.
